Source: patent US20250163104A1, “MACROCYCLIC IMMUNOMODULATORS” (priority 2021, published 2025)
*1 amine or outer side, *2 acyl side, *3 side chain or, on linkers, in order; H or OH if unused. Where a SMILES comes first, the peptide text is derived from it. Bridges are numbered along the chain shown (N, C = ends). [ ]: non-standard residue; d: D form. The star is where a group is joined. ξ: configuration not given here. Phe(4-COOH) = N[C@@H](Cc1ccc(C(=O)O)cc1)C(=O)O; Phe(4-CH2NH2) = NCc1ccc(C[C@H](N)C(=O)O)cc1; Phe(2,4-F2) = N[C@@H](Cc1ccc(F)cc1F)C(=O)O; Bip = N[C@@H](Cc1ccc(-c2ccccc2)cc1)C(=O)O; Phe(3-Me) = Cc1cccc(C[C@H](N)C(=O)O)c1; Val(3-OH) = CC(C)(O)[C@H](N)C(=O)O; ξW = NC(Cc1c[nH]c2ccccc12)C(=O)O; 4Pal = N[C@@H](Cc1ccncc1)C(=O)O; Cha = N[C@@H](CC1CCCCC1)C(=O)O; Cit = NC(=O)NCCC[C@H](N)C(=O)O; X6 = O=C(C(CCCO)N[*:1])[*:2]; Carboxymethyl = O=C(O)C*; Orn = NCCC[C@H](N)C(=O)O; Pra = C#CC[C@H](N)C(=O)O; Dab = NCC[C@H](N)C(=O)O; Abu = CC[C@H](N)C(=O)O; Dap = NC[C@H](N)C(=O)O; ξPra = C#CCC(N)C(=O)O

What follows are molecules tested against T1, human PD-1 / PD-L1-Ig binding on Jurkat cell line over-expressing human PD-1 (Jurkat-PD-1) (Homo sapiens, UniProt Q15116) (assay: Jurkat-PD-1 Cell Binding High-Content Screening Assay (CBA)). Settings: Jurkat HPD1_PDL1 IC50, Jurkat-PD-1 cells, PE-labeled PD-L1-Ig 20 nM final.
T1 construct: expressed in transfected cells; host or cells: Jurkat
T1 sequence (Q15116 25-288): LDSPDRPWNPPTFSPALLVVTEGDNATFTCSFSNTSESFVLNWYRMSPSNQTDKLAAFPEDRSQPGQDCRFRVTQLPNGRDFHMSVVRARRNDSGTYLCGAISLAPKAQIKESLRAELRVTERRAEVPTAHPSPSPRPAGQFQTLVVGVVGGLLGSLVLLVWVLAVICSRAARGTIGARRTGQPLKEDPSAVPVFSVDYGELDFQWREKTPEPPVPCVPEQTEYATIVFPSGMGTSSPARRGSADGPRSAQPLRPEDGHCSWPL
Type: cell-based
In short: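 Compounds were preincubated with Jurkat-hPD-1 cells in DMEM plus 10% fetal calf serum for 2 h at 37° C. Phycoerythrin-labeled PD-L1-Ig (20 nM final) was then added for 1 hour. Cells were fixed in 4% paraformaldehyde with Hoechst 33342, and bound fluorescence was quantified by high-content imaging.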

SMILES | IC50 [nM]
CC[C@@H]1NC(=O)[C@H](Cc2c[nH]c3ccccc23)NC(=O)[C@H](CC(=O)O)NC(=O)[C@H](Cc2ccc(OCC(=O)O)cc2)NC(=O)[C@H](CN)NC(=O)CSC[C@@H](C(=O)N[C@@H](C)C(N)=O)NC(=O)[C@H]([C@@H](C)O)NC(=O)[C@H](C(C)C)NC(=O)[C@H](CC2CCCCC2)NC(=O)[C@H](CCN)NC(=O)[C@@H](CC(C)C)NC(=O)[C@H](CCCN)NC(=O)[C@H](C(C)C)NC(=O)[C@H](Cc2ccc(-c3ccccc3)cc2)NC1=O [Compound 1729] ({CH2CO}-[Dap]Y(Carboxymethyl)DW[Abu][Bip]V[Orn][dL][Dab][Cha]VTCA-NH2; thioether N-14) | 16.9

Same assay, conditions: Jurkat-PD-1 cells, PE-labeled PD-L1-Ig 20 nM final; read-out: Jurkat HPD1_PDL1 IC50

SMILES | IC50 [nM]
CC[C@H](C)[C@@H]1NC(=O)[C@H](Cc2ccc(-c3ccccc3)cc2)NC(=O)[C@H](CC(C)C)NC(=O)C(Cc2c[nH]c3ccccc23)NC(=O)[C@H](CC(=O)O)NC(=O)[C@H](Cc2ccc(O)cc2)NC(=O)[C@H](Cc2ccccc2)NC(=O)CSC[C@@H](C(=O)N[C@@H](C)C(N)=O)NC(=O)[C@H](CO)NC(=O)[C@H](C(C)C)NC(=O)[C@H](CC(C)C)NC(=O)[C@H](CC(N)=O)NC(=O)[C@@H](CC(C)C)NC(=O)[C@H](CN)NC1=O (stereo partly drawn) [Compound 1216] ({CH2CO}-FYD[ξW]L[Bip]I[Dap][dL]NLVSCA-NH2; thioether N-14) | 22.2
CC(C)C[C@H]1NC(=O)[C@H](CCCN)NC(=O)[C@H](CCC(=O)O)NC(=O)[C@H](Cc2ccc(-c3ccccc3)cc2)NC(=O)[C@H](C(C)C)NC(=O)[C@H](Cc2ccc(O)cc2)NC(=O)[C@H](CC(=O)O)NC(=O)[C@H](Cc2ccc(OCC(=O)O)cc2)NC(=O)[C@H](CN)NC(=O)CSC[C@@H](C(=O)N[C@@H](C)C(N)=O)NC(=O)[C@H]([C@@H](C)O)NC(=O)[C@H](C(C)C)NC(=O)[C@H](CC2CCCCC2)NC(=O)[C@H](CCN)NC1=O [Compound 2141] ({CH2CO}-[Dap]Y(Carboxymethyl)DYV[Bip]E[Orn][dL][Dab][Cha]VTCA-NH2; thioether N-14) | 26.1
CC(C)[C@@H]1NC(=O)[C@H](Cc2c[nH]c3ccccc23)NC(=O)[C@H](CC(=O)O)NC(=O)[C@H](Cc2ccncc2)NC(=O)[C@H](CN)NC(=O)CSC[C@@H](C(=O)N[C@@H](C)C(N)=O)NC(=O)[C@H]([C@@H](C)O)NC(=O)[C@H](C(C)C)NC(=O)[C@H](CC2CCCCC2)NC(=O)[C@H](CCN)NC(=O)[C@@H](Cc2ccccc2)NC(=O)[C@H](CCCN)NC(=O)[C@H](CCC(=O)O)NC(=O)[C@H](Cc2ccc(-c3ccccc3)cc2)NC1=O [Compound 1433] ({CH2CO}-[Dap][4Pal]DWV[Bip]E[Orn][dF][Dab][Cha]VTCA-NH2; thioether N-14) | 40.5
CC(C)C[C@@H]1NC(=O)[C@H](CCN)NC(=O)[C@@H](CC(C)C)NC(=O)[C@H](CCCN)NC(=O)[C@H](C(C)C)NC(=O)[C@H](Cc2ccc(-c3ccccc3)cc2)NC(=O)[C@H](C(C)C)NC(=O)[C@H](Cc2c[nH]c3ccccc23)NC(=O)[C@H](CC(N)=O)NC(=O)[C@H](Cc2ccc(O)cc2)NC(=O)[C@H](CN)NC(=O)CSC[C@@H](C(=O)N[C@@H](C)C(N)=O)NC(=O)[C@H]([C@@H](C)O)NC(=O)[C@H](C(C)C)NC1=O [Compound 1087] ({CH2CO}-[Dap]YNWV[Bip]V[Orn][dL][Dab]LVTCA-NH2; thioether N-14) | 36.6
CC(C)C[C@H]1NC(=O)[C@H](CCCN)NC(=O)[C@H](CCC(=O)O)NC(=O)[C@H](Cc2ccc(-c3ccccc3)cc2)NC(=O)[C@H](C(C)C)NC(=O)[C@H](Cc2c[nH]c3ccccc23)NC(=O)[C@H](CC(=O)O)NC(=O)[C@H](Cc2ccc(OCC(=O)O)cc2)NC(=O)[C@H](CN)NC(=O)CSC[C@@H](C(=O)N[C@@H](C)C(N)=O)NC(=O)[C@H]([C@@H](C)O)NC(=O)[C@H](C(C)C)NC(=O)[C@H](Cc2ccc(F)cc2F)NC(=O)[C@H](CCN)NC1=O [Compound 1479] ({CH2CO}-[Dap]Y(Carboxymethyl)DWV[Bip]E[Orn][dL][Dab][Phe(2,4-F2)]VTCA-NH2; thioether N-14) | 347
CC(C)C[C@H]1NC(=O)[C@H](CCCN)NC(=O)[C@H](CCCNC(N)=O)NC(=O)[C@H](Cc2ccc(-c3ccccc3)cc2)NC(=O)[C@H](C(C)C)NC(=O)[C@H](Cc2c[nH]c3ccccc23)NC(=O)[C@H](CC(=O)O)NC(=O)[C@H](Cc2ccc(OCC(=O)O)cc2)NC(=O)[C@H](CN)NC(=O)CSC[C@@H](C(=O)N[C@@H](C)C(N)=O)NC(=O)[C@H](C(C)C)NC(=O)[C@H](C(C)C)NC(=O)[C@H](CC2CCCCC2)NC(=O)[C@H](CCN)NC1=O [Compound 1319] ({CH2CO}-[Dap]Y(Carboxymethyl)DWV[Bip][Cit][Orn][dL][Dab][Cha]VVCA-NH2; thioether N-14) | 49.7

Results, then the molecule that gave them:

IC50 [nM] | SMILES
7.4 | C#CC[C@H](NC(=O)[C@H](CCN)NC(=O)[C@@H]1CSCC(=O)N[C@@H](CN)C(=O)N[C@@H](Cc2ccc(C(=O)O)cc2)C(=O)N[C@@H](CC(=O)O)C(=O)N[C@@H](Cc2cccc(C)c2)C(=O)N[C@@H](Cc2ccc(C(=O)O)cc2)C(=O)N[C@@H](Cc2ccc(-c3ccccc3)cc2)C(=O)N[C@@H](Cc2ccc(C(=O)O)cc2)C(=O)N[C@@H](CCCN)C(=O)N[C@H](CC(C)C)C(=O)N[C@@H](CCN)C(=O)N[C@@H](CC2CCCCC2)C(=O)N[C@@H](C(C)(C)O)C(=O)N[C@@H](Cc2cnc[nH]2)C(=O)N1)C(N)=O [Compound 1862] ({CH2CO}-[Dap][Phe(4-COOH)]D[Phe(3-Me)][Phe(4-COOH)][Bip][Phe(4-COOH)][Orn][dL][Dab][Cha][Val(3-OH)]HC[Dab][Pra]-NH2; thioether N-14)
15.7 | CC(C)C[C@H]1NC(=O)[C@H](CCCN)NC(=O)[C@H](CCCNC(N)=O)NC(=O)[C@H](Cc2ccc(-c3ccccc3)cc2)NC(=O)[C@H](C(C)C)NC(=O)[C@H](Cc2c[nH]c3ccccc23)NC(=O)[C@H](CC(=O)O)NC(=O)[C@H](Cc2ccc(CN)cc2)NC(=O)[C@H](CN)NC(=O)CSC[C@@H](C(=O)N[C@@H](C)C(N)=O)NC(=O)[C@H]([C@@H](C)O)NC(=O)[C@H](C(C)C)NC(=O)[C@H](CC2CCCCC2)NC(=O)[C@H](CCN)NC1=O [Compound 2098] ({CH2CO}-[Dap][Phe(4-CH2NH2)]DWV[Bip][Cit][Orn][dL][Dab][Cha]VTCA-NH2; thioether N-14)
7.7 | Cc1cccc(C[C@@H]2NC(=O)[C@H](CC(=O)O)NC(=O)[C@H](Cc3ccc(OCC(=O)O)cc3)NC(=O)[C@H](CN)NC(=O)CSC[C@@H](C(=O)N[C@@H](CCN)C(N)=O)NC(=O)C(CCCO)NC(=O)[C@H](C(C)C)NC(=O)[C@H](CC3CCCCC3)NC(=O)[C@H](CCN)NC(=O)[C@@H](CC(C)C)NC(=O)[C@H](CCCN)NC(=O)[C@H](Cc3ccc(O)cc3)NC(=O)[C@H](Cc3ccc(-c4ccccc4)cc3)NC(=O)[C@H](C(C)C)NC2=O)c1 (stereo partly drawn) [Compound 2257] ({CH2CO}-[Dap]Y(Carboxymethyl)D[Phe(3-Me)]V[Bip]Y[Orn][dL][Dab][Cha]V[X6]C[Dab]-NH2; thioether N-14)
21.4 | C#CCC(NC(=O)[C@H](CCN)NC(=O)[C@@H]1CSCC(=O)N[C@@H](Cc2ccncc2)C(=O)N[C@@H](Cc2ccc(OCC(=O)O)cc2)C(=O)N[C@@H](CC(=O)O)C(=O)N[C@@H](Cc2c[nH]c3ccccc23)C(=O)N[C@@H](C(C)C)C(=O)N[C@@H](Cc2ccc(-c3ccccc3)cc2)C(=O)N[C@@H]([C@@H](C)CC)C(=O)N[C@@H](CCCN)C(=O)N[C@H](CC(C)C)C(=O)N[C@@H](CCN)C(=O)N[C@@H](CC(C)C)C(=O)N[C@@H](C(C)C)C(=O)N[C@@H]([C@@H](C)O)C(=O)N1)C(N)=O (stereo partly drawn) [Compound 1765] ({CH2CO}-[4Pal]Y(Carboxymethyl)DWV[Bip]I[Orn][dL][Dab]LVTC[Dab][ξPra]-NH2; thioether N-14)
4.5 | Cc1cccc(C[C@@H]2NC(=O)[C@H](CC(=O)O)NC(=O)[C@H](Cc3ccc(OCC(=O)O)cc3)NC(=O)[C@H](CN)NC(=O)CSC[C@@H](C(=O)NCC(N)=O)NC(=O)[C@H](CO)NC(=O)[C@H](C(C)C)NC(=O)[C@H](CC(C)C)NC(=O)[C@H](CCN)NC(=O)[C@@H](CC(C)C)NC(=O)[C@H](CCCN)NC(=O)[C@H](C(C)C)NC(=O)[C@H](Cc3ccc(-c4ccccc4)cc3)NC(=O)[C@H](CC(C)C)NC2=O)c1 [Compound 1264] ({CH2CO}-[Dap]Y(Carboxymethyl)D[Phe(3-Me)]L[Bip]V[Orn][dL][Dab]LVSCG-NH2; thioether N-14)
9.1 | CCC[C@@H]1NC(=O)[C@H](Cc2c[nH]c3ccccc23)NC(=O)[C@H](CC(=O)O)NC(=O)[C@H](Cc2ccc(OCC(=O)O)cc2)NC(=O)[C@H](CN)NC(=O)CSC[C@@H](C(=O)N[C@@H](C)C(N)=O)NC(=O)[C@H]([C@@H](C)O)NC(=O)[C@H](C(C)C)NC(=O)[C@H](CC2CCCCC2)NC(=O)[C@H](CCN)NC(=O)[C@@H](CC(C)C)NC(=O)[C@H](CCCN)NC(=O)[C@H]([C@@H](C)CC)NC(=O)[C@H](Cc2ccc(-c3ccccc3)cc2)NC1=O [Compound 1727]
15.1 | C#CC[C@H](NC(=O)[C@H](CCN)NC(=O)[C@@H]1CSCC(=O)N[C@@H](CCCN)C(=O)N[C@@H](Cc2ccc(OCC(=O)O)cc2)C(=O)N[C@@H](CC(=O)O)C(=O)N[C@@H](Cc2cccc(C)c2)C(=O)N[C@@H](Cc2ccc(OCC(=O)O)cc2)C(=O)N[C@@H](Cc2ccc(-c3ccccc3)cc2)C(=O)N[C@@H](Cc2ccc(OCC(=O)O)cc2)C(=O)N[C@@H](CCCN)C(=O)N[C@H](CC(C)C)C(=O)N[C@@H](CCN)C(=O)N[C@@H](CC2CCCCC2)C(=O)N[C@@H](C(C)(C)O)C(=O)N[C@@H]([C@@H](C)O)C(=O)N1)C(N)=O [Compound 1854] ({CH2CO}-[Orn]Y(Carboxymethyl)D[Phe(3-Me)]Y(Carboxymethyl)[Bip]Y(Carboxymethyl)[Orn][dL][Dab][Cha][Val(3-OH)]TC[Dab][Pra]-NH2; thioether N-14)
